Results on five compounds are retold here after patent publication US20070225203A1, “Method and Composition for Preventing Multiple Organ Dysfunction Syndrome” (N.V. NUTRICIA, priority 2003, published 2007).

One assay has as its target xanthine oxidase (Homo sapiens, UniProt P47989). Put plainly: Xanthine oxidase inhibition by flavonoids. Format: biochemical.
Assay [1] can be described thus: Oxidative stress, plasma concentrations of malon dialdehyde.
The test system of a further assay is HepG2 cells. As to the kind of experiment: GTP concentration in folic acid challenged HepG2 cells. The format is cell-based, human. Here is the method:
HepG2 cells, a human hepatocarcinoma cell line, were obtained from ATCC. These were maintained in MEM supplemented with 10% FCS; 1% NEAA; 1% penicillin/streptomycin mixture. Cells were seeded primarily at a density of approximately 1-2×10^6 cells and were split and transferred to new flasks when showing 70-90% confluency. 96-well microtitre plates (ex Micronic, Leylstad, N L.), containing 0.35×10^6 cells per well were incubated for 24 hours at 37° C.; 5% CO2. HepG2's were folic acid challenged by addition of folic acid free media for 1 hour. This folic acid challenged cells were compared with cells that remained at an increasing concentration of folic acid or ribose.
Nucleotides were measured as described by van Hoorn et al., Analytical Biochemistry (2003), 320, 82-87.
1. 6.5 hours incubation of HepG2 cells in either folic acid depleted media or media containing 2.27 μM folic acid

Sequence of xanthine oxidase (P47989 whole entry, species assumed): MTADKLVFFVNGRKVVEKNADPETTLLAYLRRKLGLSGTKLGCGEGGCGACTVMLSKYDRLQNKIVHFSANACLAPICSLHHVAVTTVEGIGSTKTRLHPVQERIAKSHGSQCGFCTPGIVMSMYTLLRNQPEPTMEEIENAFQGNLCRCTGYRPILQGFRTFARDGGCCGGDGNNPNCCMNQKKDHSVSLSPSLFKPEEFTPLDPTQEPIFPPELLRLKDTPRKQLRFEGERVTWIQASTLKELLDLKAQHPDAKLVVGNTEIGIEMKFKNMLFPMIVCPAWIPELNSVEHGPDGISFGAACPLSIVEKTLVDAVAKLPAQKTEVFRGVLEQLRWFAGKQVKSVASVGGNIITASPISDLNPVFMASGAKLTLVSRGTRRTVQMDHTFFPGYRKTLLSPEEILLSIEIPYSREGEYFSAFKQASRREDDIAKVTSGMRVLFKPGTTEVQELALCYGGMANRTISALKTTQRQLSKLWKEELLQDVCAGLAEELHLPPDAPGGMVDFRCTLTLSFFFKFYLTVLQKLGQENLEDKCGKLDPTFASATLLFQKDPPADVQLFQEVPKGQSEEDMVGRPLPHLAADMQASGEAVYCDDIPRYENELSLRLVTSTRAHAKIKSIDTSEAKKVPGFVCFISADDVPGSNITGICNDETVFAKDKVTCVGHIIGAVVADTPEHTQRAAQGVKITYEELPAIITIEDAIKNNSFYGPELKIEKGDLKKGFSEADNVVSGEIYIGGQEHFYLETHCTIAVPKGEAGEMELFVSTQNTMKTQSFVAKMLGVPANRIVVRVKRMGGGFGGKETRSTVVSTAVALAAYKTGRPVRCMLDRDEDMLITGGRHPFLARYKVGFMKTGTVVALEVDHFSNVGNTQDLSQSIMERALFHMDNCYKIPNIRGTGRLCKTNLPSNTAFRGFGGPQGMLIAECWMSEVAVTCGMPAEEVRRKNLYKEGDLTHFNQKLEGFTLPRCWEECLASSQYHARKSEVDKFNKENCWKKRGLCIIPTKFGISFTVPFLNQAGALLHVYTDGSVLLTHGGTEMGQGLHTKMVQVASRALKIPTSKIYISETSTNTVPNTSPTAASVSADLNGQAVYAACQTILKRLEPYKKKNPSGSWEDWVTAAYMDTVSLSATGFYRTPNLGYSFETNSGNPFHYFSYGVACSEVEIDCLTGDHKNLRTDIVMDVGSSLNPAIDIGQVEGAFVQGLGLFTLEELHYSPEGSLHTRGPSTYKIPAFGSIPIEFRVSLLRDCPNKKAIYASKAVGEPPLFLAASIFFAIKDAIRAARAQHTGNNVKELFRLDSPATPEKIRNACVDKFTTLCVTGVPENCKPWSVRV

As to `O=c1c(O)c(-c2ccc(O)c(O)c2)oc2cc(O)cc(O)c12` [quercetin], the xanthine oxidase inhibition result on xanthine oxidase was “good xanthine oxidase inhibitors”. Further, the “oxidative stress, plasma concentrations of malon dialdehyde” value (“oxidative stress, plasma concentrations” below) in assay [1] is recorded as “inhibit oxidative stress”.

As for `O=c1cc(-c2ccc(O)cc2)oc2cc(O)cc(O)c12` [apigenin], the xanthine oxidase inhibition result at xanthine oxidase was “good xanthine oxidase inhibitors”. The “oxidative stress, plasma concentrations” value in assay [1] is “inhibit oxidative stress”.

As for `O=c1cc(-c2ccc(O)c(O)c2)oc2cc(O)cc(O)c12` [luteolin], the xanthine oxidase inhibition result at xanthine oxidase is listed as “good xanthine oxidase inhibitors”. Further, the “oxidative stress, plasma concentrations” value in assay [1] was “inhibit oxidative stress”.

Take `Nc1nc2ncc(CNc3ccc(C(=O)N[C@@H](CCC(=O)O)C(=O)O)cc3)nc2c(=O)[nH]1` [folic acid]: in the assay with HepG2 cells (single agent vs folic acid challenged cells, folic acid 2.27 μM, 6.5 hours), the “GTP concentration in HepG2 cells” value is “significantly increased”.

`O=C[C@H](O)[C@H](O)[C@H](O)CO` [ribose]: the “GTP concentration in HepG2 cells, ribose on top of folic acid” value with HepG2 cells (combination of ribose with folic acid, FIG. 10) is listed as “additive effect”.
